Eleven molecules from patent publication US9051318B2, “Pyrido [2, 3-B] pyrazine compounds and their therapeutical uses such as for inhibiting ATP consuming proteins and treating diseases associated therewith” (Merck Patent GmbH, priority 2011, dated 2015) can be followed below.

The subject of test [1] is TGF-beta-induced phosphorylation of Smad2 (Ser465/467) and Smad3 (Ser423/425) in Mv1-Lu cells. Nature of the test: Inhibition of Smad2/3 phosphorylation in Mv1Lu cells (Example 10). The note with it: Neogale vison, TGF-beta 1 5 ng/ml, phospho-Smad2/3 ELISA, read-out: TβR activity (Example 10). Format: cell-based, mink Mustela vison. How it is done:
This assay was used to determine the inhibitory potency of compounds on TGF-beta-induced phosphorylation of Smad2 (Ser465/467) and Smad3 (Ser423/425). Mv1-Lu cells (lung epithelial cell line from mink Mustela vison; ATCC number: CCL-64) were seeded in DMEM (Invitrogen) supplemented with 10% fetal bovine serum (Pan Biotech) at a defined cell density in 24-well or 96-well plates (24-well plate: 1.5×10^5 cells per well; 96-well plate: 4×10^4 cells per well). Cell cultures were incubated in DMEM at 37° C. and 10% CO2. On the next day, the medium was replaced and cells were serum-starved for 16-20 hours. The following day, serial dilutions of compounds were added to the wells, pre-incubated for 1.5 hrs before recombinant TGF-beta 1 ligand (final concentration 5 ng/ml; R&D systems) was added. After one hour of ligand stimulation, lysates were prepared and analyzed using an enzyme-linked immunosorbent assay kit (PathScan Phospho-Smad2 Kit, Cell Signaling Technologies). The ELISA detects phosphorylated Smad2 as well as phosphorylated Smad3 with the phospho-specific antibody. TGF-beta stimulated cells and unstimulated cells served as positive and negative controls (100% and background control). The concentration of the vehicle DMSO was kept constant at 0.2% (v/v) in all wells. Dose-response relationships were fitted using curve fitting algorithms of the RS1 statistics software package (Brooks Automation Inc. RS/1—Statistical Tools Handbook. Release 6.2) to determine the concentration at which half-maximal inhibition (IC50) of Smad2/3 phosphorylation was achieved.

Another test has as its target T1, GST-ALK5 (Homo sapiens, UniProt P36897).
T1 sequence (P36897 34-503): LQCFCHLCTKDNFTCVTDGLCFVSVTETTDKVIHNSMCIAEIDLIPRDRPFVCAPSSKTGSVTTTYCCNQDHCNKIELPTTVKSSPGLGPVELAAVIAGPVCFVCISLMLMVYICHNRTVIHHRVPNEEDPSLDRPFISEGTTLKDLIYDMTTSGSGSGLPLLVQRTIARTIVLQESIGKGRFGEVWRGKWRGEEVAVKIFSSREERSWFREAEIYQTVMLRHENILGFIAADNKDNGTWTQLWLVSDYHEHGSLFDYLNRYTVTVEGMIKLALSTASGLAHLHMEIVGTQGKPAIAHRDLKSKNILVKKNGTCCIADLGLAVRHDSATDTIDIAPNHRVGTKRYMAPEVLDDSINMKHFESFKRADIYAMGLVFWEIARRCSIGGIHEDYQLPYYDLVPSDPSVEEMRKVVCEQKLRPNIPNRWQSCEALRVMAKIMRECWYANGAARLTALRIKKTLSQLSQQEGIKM
Nature of the test: In-vitro (enzyme) kinase flashplate assay, TGF-beta receptor kinase (Example 9). Format: biochemical. The note with it: GST-ALK5, GST-SMAD2 substrate, 3 mM ATP, 30° C. 45 min; read-out: TβR activity (Example 9). As for the experimental part: The kinase assay was carried out as 384-well flashplate assay. 31.2 nM of GST-ALK5, 439 nM of GST-SMAD2 and 3 mM of ATP (with 0.3 μCi of ^33P-ATP/well) were incubated in a total volume of 35 μl (20 mM of HEPES, 10 mM of MgCl2, 5 mM of MnCl2, 1 mM of DTT, 0.1% of BSA, pH 7.4) without or with test substance (5-10 concentrations) at 30° C. for 45 min. The reaction was stopped using 25 μl of 200 mM EDTA solution, filtered with suction at room temperature after 30 min, and the wells were washed with 3 times 100 μl of 0.9% NaCl solution. Radioactivity was measured in the TopCount. The IC50 values were calculated using RS 1.

Each structure is given as a SMILES string. A value given as a limit tells only on which side of the number the result lay.

On to `Cn1cc(-c2cncc(-c3cc(-c4ccccc4F)nc4nccnc34)c2)cn1` [Compound 10, 6-(2-Fluorophenyl)-8-[5-(1-methyl-1H-pyrazol-4-yl)-pyridin-3-yl]-pyrido[2,3-b] pyrazine], for which the IC50 (in test [1]; on GST-ALK5) was less than 1000 nM in each case.
As to `Fc1ccc(Cl)cc1-c1cc(Nc2ccncc2)c2nccnc2n1` [Compound 2, [6-(5-Chloro-2-fluoro-phenyl)-pyrido[2,3-b]pyrazin-8-yl]-pyridin-4-yl-amine], the IC50 (in test [1]; at GST-ALK5) was less than 1000 nM in each case.
Turning to `OCCn1cc(-c2cncc(-c3cc(-c4ccccc4F)nc4nccnc34)c2)cn1` [Compound 12, 2-[4-[5-[6-(2-Fluorophenyl)pyrido [2,3-b]pyrazin-8-yl]-3-pyridyl]pyrazol-1-yl]ethanol], the IC50 (in test [1]; on GST-ALK5) was less than 1000 nM in each case.
Regarding `CN1CCC(n2cc(-c3cncc(-c4cc(-c5ccccc5F)nc5nccnc45)c3)cn2)CC1` [Compound 9, 6-(2-Fluorophenyl)-8-{5-[1-(1-methyl-piperidin-4-yl)-1H-pyrazol-4-yl]-pyridin-3-yl}-pyrido[2,3-b] pyrazine], the IC50 (in test [1]; at GST-ALK5) was less than 1000 nM in each case.
Turning to `Fc1ccccc1-c1cc(Nc2ccncc2)c2nccnc2n1` [Compound 1, [6-(2-Fluorophenyl)-pyrido[2,3-b]pyrazin-8-yl]-pyridin-4-yl-amine], the IC50 (in test [1]; on GST-ALK5) was less than 1000 nM each time.
As to `Nc1ncc(-c2cc(-c3ccccc3F)nc3nccnc23)c2ccncc12` [Compound 6, 4-[6-(2-Fluorophenyl)-pyrido[2,3-b]pyrazin-8-yl]-[2,7]naphthyridin-1-ylamine], the IC50 (in test [1]; on GST-ALK5) was less than 1000 nM each time.
On to `Fc1ccc(Cl)cc1-c1cc(Nc2ccnc3ccoc23)c2nccnc2n1` [Compound 14, N-[6-(5-Chloro-2-fluorophenyl)pyrido [2,3-b]pyrazin-8-yl]furo[3,2-b]pyridin-7-amine], for which the IC50 (in test [1]; at GST-ALK5) was less than 1000 nM throughout.
As to `Nc1nccc2c(-c3cc(-c4cc(Cl)ccc4F)nc4nccnc34)nccc12` [Compound 5, 5-[6-(5-Chloro-2-fluorophenyl)-pyrido[2,3-b]pyrazin-8-yl]-[2,6]naphthyridin-1-ylamine], in test [1], the IC50 is less than 1000 nM.
Consider `Nc1nccc2c(-c3cc(-c4ccccc4F)nc4nccnc34)cccc12` [Compound 4, 5-[6-(2-Fluorophenyl)-pyrido[2,3-b]pyrazin-8-yl]-isoquinolin-1-ylamine], for which the IC50 (in test [1]; on GST-ALK5) was less than 1000 nM throughout.
On to `Nc1nccc2c(-c3cc(-c4cc(F)ccc4F)nc4nccnc34)nccc12` [Compound 8, 5-[6-(2,5-Difluoro-phenyl)pyrido[2,3-b]pyrazin-8-yl]-2,6-naphthyridin-1-amine], for which the IC50 in test [1] is less than 1000 nM.
With `Nc1nccc2c(-c3cc(-c4ccccc4F)nc4nccnc34)nccc12` [Compound 3, 5-[6-(2-Fluorophenyl)-pyrido[2,3-b]pyrazin-8-yl]-[2,6]naphthyridin-1-ylamine], the IC50 (in test [1]; on GST-ALK5) was less than 1000 nM in each case.
